Patent US20250134907A1, “FUSED DIAZEPINES AS AGONISTS OF THE INSULIN-LIKE 3 (INSL3) PEPTIDE RECEPTOR RXFP2 AND METHODS OF USE THEREOF” (The United States of America,as represented by the …, priority 2022, published 2025)

How the values were obtained:
RXFP1 = target: T1, RXFP1 (Homo sapiens, UniProt Q9HBX9); assay: HTRF cAMP counter-screen in HEK-RXFP1 cells; type: cell-based; conditions: compound 10 μM-[…], IBMX 200 μM
T1 construct: expressed in transfected cells
T1 sequence (Q9HBX9 1-757): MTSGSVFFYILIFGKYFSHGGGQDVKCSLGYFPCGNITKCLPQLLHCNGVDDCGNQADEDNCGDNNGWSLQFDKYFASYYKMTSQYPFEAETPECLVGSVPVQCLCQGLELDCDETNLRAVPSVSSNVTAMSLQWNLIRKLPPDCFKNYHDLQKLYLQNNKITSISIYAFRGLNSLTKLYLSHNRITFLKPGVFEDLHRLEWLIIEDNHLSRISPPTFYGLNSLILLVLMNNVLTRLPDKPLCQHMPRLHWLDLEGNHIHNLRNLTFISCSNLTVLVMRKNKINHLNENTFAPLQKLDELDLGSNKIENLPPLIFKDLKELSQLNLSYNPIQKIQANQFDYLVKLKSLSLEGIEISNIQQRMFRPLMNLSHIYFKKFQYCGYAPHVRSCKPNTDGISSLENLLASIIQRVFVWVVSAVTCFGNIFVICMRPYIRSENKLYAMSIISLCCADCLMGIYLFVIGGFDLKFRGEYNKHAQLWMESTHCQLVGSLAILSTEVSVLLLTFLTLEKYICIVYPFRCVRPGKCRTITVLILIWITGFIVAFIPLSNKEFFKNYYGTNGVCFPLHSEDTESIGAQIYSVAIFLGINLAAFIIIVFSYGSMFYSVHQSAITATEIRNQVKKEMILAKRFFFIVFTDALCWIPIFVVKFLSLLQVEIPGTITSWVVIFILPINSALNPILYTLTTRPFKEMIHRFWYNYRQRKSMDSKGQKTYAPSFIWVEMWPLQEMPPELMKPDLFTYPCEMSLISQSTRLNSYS
From the text: HEK293T cells stably transfected with RXFP1 (HEK-RXFP1) were used to test compound specificity towards the RXFP2 receptor using the HTRF Gs dynamic cAMP assay kit (PerkinElmer, Waltham, MA). This is a competitive immunoassay where a time-resolved fluorescence resonance energy (TR-FRET) signal is produced when exogenous d2-labeled cAMP (acceptor) binds to europium cryptate-conjugated anti-cAMP antibody (donor). No signal is produced when endogenous cAMP binds to the antibody. Thus, the TR-FRET signal is inversely proportional to the concentration of cAMP produced by the cells. The HTRF cAMP assay was carried out in the presence of isobutylmethylxanthine phosphodiesterase inhibitor (IBMX) at 200 μM to amplify the cAMP signal. For this assay, cells were seeded in 96-well flat-bottom opaque plates at 30,000 cells/well in 60 μL/well of serum-free DMEM medium and allowed to attach overnight at 37° C., 5% CO2. The next morning, cells were treated with 1 μL/well of compound (10 μM-1.2 nM), 1 μM forskolin, or DMSO vehicle. Cells were also treated with 4 μL of 10 nM Relaxin2 (Peprotech, Cranbury, NJ) as a positive control or vehicle (serum-free DMEM+IBMX). […] Cells were incubated for 1 hour at room temperature, and then the signal was read on a CLARIOstar plate reader (BMG Labtech, Germany). […]

HEK293T cells = assay: CellTiter-Glo cytotoxicity assay in HEK293T cells; type: cell-based, human; conditions: 24 h, 25 μM and 8.3 μM
Experimental: Cytotoxicity induced by the compounds in HEK293T cells and primary human calvarial osteoblasts (HCO) (ScienCell Research Laboratories, San Diego, CA) were tested using the […]-GLO™ Luminescent Cell Viability Assay (Promega, Madison, WI). This is a luminescence-based assay that determines viable cells by measuring cellular adenosine triphosphate (ATP) production. The luciferase enzyme requires ATP to catalyze the conversion of beetle luciferin to oxyluciferin and light. Thus, luciferase activity is proportional to ATP accumulation in the cells. For this assay, 96-well flat-bottom opaque plates seeded with HEK293T cells at 5,000 cells/well and HCO cells at 3,000 cells/well in 100 μL/well of growth medium (DMEM, 10% FBS, 1× Penicillin/Streptomycin). After incubating overnight at 37° C., 5% CO2 to allow attachment, cells were treated with 1 μL/well of compound (25-0.1 μM) or DMSO vehicle and incubated an additional 24 hours. Then cells were equilibrated for 30 minutes at room temperature and 100 μL/well of […]-GLO™ Reagent was added. Plates were placed on an orbital shaker for 2 minutes and incubated at room temperature for 10 minutes to stabilize the luminescent signal, which was read immediately after on a CLARIOstar plate reader (BMG Labtech, Germany). […] The HEK293T results represent the means±SEM of 3 technical replicates. The HCO results represent the means±SEM of 3 independent experiments.

mouse RXFP2 = target: T2, mouse RXFP2 (Mus musculus, UniProt Q91ZZ5); assay: Luciferase cAMP assay in HEK-CRE-Luc cells transiently transfected with mouse RXFP2; type: cell-based; conditions: 10 μM-[…], compared with human RXFP2 response
T2 construct: expressed in transfected cells; host or cells: HEK-CRE-Luc (transient, Lipofectamine2000)
T2 sequence (Q91ZZ5 whole entry): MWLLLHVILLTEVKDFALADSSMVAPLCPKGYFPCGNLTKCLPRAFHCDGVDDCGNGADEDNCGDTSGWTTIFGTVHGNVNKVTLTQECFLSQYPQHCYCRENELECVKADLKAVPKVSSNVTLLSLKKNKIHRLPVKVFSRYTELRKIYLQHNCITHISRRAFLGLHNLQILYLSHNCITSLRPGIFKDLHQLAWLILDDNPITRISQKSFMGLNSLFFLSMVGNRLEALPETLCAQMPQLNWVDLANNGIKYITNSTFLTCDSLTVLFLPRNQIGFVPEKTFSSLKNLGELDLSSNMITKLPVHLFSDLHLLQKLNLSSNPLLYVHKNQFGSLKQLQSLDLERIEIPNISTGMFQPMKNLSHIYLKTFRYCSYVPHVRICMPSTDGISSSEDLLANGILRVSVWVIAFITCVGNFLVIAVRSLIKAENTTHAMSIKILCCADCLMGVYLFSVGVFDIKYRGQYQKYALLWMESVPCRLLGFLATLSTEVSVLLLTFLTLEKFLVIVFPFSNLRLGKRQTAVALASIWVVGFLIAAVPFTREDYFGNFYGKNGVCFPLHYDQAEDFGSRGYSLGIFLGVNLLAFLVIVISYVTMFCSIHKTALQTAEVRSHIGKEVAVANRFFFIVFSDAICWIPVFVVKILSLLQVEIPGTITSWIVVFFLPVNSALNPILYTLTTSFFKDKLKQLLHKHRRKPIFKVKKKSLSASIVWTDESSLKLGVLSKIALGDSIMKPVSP
Experimental: It was of interest if the RXFP2 agonists of formula (I) activate the mouse RXFP2 receptor. HEK-CRE-Luc cells transiently transfected with mouse RXFP2 were used to test agonist activity by measuring induction of cAMP. For this assay, cells were seeded in 6-well flat-bottom clear plates at 0.6 million cells/well in 2 mL/well of growth medium (DMEM, 10% FBS, 1× Pen/Strep) and allowed to attach overnight at 37° C., 5% CO2. The next morning, cells were transfected with 2 μg of plasmid (human or mouse RXFP2) and 6 μL of Lipofectamine2000 (Invitrogen, Waltham, MA) in a total volume of 200 μl/well OPTI-MEM™ I (Thermo Fisher, Waltham, MA) reduced serum medium and incubated an additional 24 hours. The transfected cells were then harvested and seeded in 96-well flat-bottom opaque plates at 30,000 cells/well in 60 μL/well of serum-free DMEM medium and incubated overnight to attach. The next morning, cells were treated with 1 μL/well of compound (10 μM-1.2 nM), 2 μM forskolin, or DMSO vehicle, and with 4 μL of positive control INSL3 (100-0.01 nM) (Phoenix Pharmaceuticals, Burlingame, CA) or vehicle serum-free DMEM. […] Plates were incubated for 40 minutes at room temperature protected from light, and the signal was read on a CLARIOstar plate reader (BMG Labtech, Germany). […]

Compound	RXFP1 cAMP response (activation of RXFP1) (RXFP1)	cytotoxicity (HEK293T cells)	mouse RXFP2 activation (cAMP, luciferase) (mouse RXFP2)
O=C1Nc2ccc(-c3cccc(C(F)(F)F)c3)cc2C(=O)N2CCN(C(=O)COc3ccc(OC(F)(F)F)cc3Br)C[C@@H]12 [Example 123, (S)-2-(2-(2-bromo-4-(trifluoromethoxy)phenoxy)acetyl)-8-(3-(trifluoromethyl)phenyl)-1,3,4,12a-tetrahydrobenzo[e]pyrazino[1,2-a][1,4]diazepine-6,12 (2H, 11H)-dione]	do not activate	some toxicity	activate the mouse RXFP2 receptor at levels comparable to human RXFP2 activation
O=C1Nc2ccc(-c3cc(C(F)(F)F)cc(C(F)(F)F)c3)cc2C(=O)N2CCN(C(=O)COc3ccc(OC(F)(F)F)cc3Br)C[C@@H]12 [Example 158, (S)-8-(3,5-Bis(trifluoromethyl)phenyl)-2-(2-(2-bromo-4-(trifluoromethoxy)phenoxy)acetyl)-1,3,4,12a-tetrahydrobenzo[e]pyrazino[1,2-a][1,4]diazepine-6,12 (2H, 11H)-dione]	do not activate	some toxicity	activate the mouse RXFP2 receptor at levels comparable to human RXFP2 activation
